Consider one compound from article PMC6934184, “Selective DNA-PKcs inhibition extends the therapeutic index of localized radiotherapy and chemotherapy” (The Journal of Clinical Investigation, 2019).

The structures appear in SMILES notation.

The target of this test is T1, TTK (Homo sapiens, UniProt P33981).
T1 construct: purchased Thermo Fisher Scientific (Life Technologies) SelectScreen
Description: SelectScreen LanthaScreen. It counts as binding. To be noted: read-out: % displacement. The gist of the method: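 SelectScreen broad panel; activity (Z'LYTE, Adapta) plus binding formats. ATP: Km app for CSF1R Z'LYTE; 10 for CAMK1 Adapta. Readout = % per kinase.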

T1 sequence (P33981 whole entry): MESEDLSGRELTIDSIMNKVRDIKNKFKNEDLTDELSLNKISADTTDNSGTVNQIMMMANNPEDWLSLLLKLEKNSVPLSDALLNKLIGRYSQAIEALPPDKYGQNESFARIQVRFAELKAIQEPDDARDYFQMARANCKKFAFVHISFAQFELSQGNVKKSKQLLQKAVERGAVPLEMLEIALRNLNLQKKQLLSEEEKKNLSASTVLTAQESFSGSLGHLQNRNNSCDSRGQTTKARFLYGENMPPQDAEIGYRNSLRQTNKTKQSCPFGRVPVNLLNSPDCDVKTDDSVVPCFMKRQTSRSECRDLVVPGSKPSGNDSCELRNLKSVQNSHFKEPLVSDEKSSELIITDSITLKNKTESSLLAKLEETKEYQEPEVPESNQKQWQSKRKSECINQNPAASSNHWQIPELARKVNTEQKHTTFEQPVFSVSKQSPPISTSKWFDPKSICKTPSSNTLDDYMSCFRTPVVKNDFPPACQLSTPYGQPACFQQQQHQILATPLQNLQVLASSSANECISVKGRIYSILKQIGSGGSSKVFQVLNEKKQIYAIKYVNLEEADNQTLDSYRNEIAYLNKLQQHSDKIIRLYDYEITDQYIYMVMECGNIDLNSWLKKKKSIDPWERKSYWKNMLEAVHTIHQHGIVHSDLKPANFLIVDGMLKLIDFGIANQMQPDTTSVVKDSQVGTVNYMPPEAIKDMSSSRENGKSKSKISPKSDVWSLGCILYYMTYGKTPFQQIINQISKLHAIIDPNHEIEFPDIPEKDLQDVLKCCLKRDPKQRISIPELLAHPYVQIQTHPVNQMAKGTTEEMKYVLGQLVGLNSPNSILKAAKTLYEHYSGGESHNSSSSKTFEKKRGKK

Regarding `CN(C(=O)CN1CCOCC1)c1ccc2sc3c(-c4cccc5c(=O)cc(N6CC7CCC(C6)O7)oc45)cccc3c2c1` [NU5455], the inhibition at 1 µM was -0.7%.
